Results reported in patent publication US20240058268A1, “METHODS OF TREATING SKIN DISORDERS” (priority 2021, published 2024).

Tested on: acne papule biopsies, Diseases or Functions Annotation
Experiment: Ingenuity Pathway Analysis, diseases or functions activation of the trifarotene signature
Type: in vivo, human
Details: trifarotene treated area (day 27) vs papule before treatment
Procedure: Functional and network analysis were generated with the Ingenuity Pathway Analysis software (QIAGEN® Inc., qiagenbioinformatics.com/products/ingenuity-pathway-analysis), and with Open Targets (opentargets.org/). IPA was used to identify canonical pathways, diseases and functions, and gene networks related to differentially expressed genes in acne lesions and post-lesional skin after treatment with trifarotene or vehicle. In addition, gene set enrichment analysis was performed with the R package FGSEA (version 1.12.0) using the hallmark and reactome gene sets. A comparative analysis was performed to identify expression patterns: For this analysis, the following comparisons were made to develop characteristic expression patterns: (a) Papule before treatment vs non-involved skin was used to derive an acne signature; (b) Resolved papule zone after treated with vehicle vs papule before treatment was used to derive signature of spontaneously resolved papule; and (c) Resolved papule zone after treatment with trifarotene vs papule before treatment to determine trifarotene treatment signature. […]

With CC(C)(C)c1cc(-c2cc(-c3ccc(C(=O)O)cc3)ccc2OCCO)ccc1N1CCCC1 [Trifarotene, 3″-tert-Butyl-4′-(2-hydroxy-ethoxy)-4″-pyrrolidin-1-yl-[1,1′,3′,1″ ]terphenyl-4-carboxylic acid] the “Activation z.score Trifarotene signature: Flux of Ca2+” value was −2.838.
